Results reported in patent publication EP4635944A1, “2-AZABICYCLO[3.1.1]HEPTANE COMPOUND” (Daiichi Sankyo Company, Limited, priority 2022, dated 2024).

biological target: T1, human OX2R (Homo sapiens, UniProt O43614); assay: Evaluation of OX2R agonist activity (intracellular calcium, CHO-K1 cells with forced expression of human OX2R); format: cell-based; details: CHO-K1 cells expressing human OX2R; 100% = 5 µM of the reference compound; read-out: hOX2R EC50
T1 construct: host or cells: CHO-K1 (Chinese Hamster Ovary K1)
T1 sequence (O43614 1-444): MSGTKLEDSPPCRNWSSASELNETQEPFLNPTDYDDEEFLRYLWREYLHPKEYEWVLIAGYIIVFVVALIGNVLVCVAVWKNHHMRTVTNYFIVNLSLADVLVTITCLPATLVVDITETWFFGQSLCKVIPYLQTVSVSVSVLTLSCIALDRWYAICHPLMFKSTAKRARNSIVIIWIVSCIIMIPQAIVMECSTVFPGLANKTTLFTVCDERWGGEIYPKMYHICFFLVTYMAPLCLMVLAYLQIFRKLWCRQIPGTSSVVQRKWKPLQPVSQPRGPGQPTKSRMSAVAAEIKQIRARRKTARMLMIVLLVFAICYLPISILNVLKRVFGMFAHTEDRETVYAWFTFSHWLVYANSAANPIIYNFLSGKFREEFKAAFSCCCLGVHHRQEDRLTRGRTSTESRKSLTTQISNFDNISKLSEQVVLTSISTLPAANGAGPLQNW
Protocol: Evaluation of OX2R agonist activity
Chinese Hamster Ovary K1 (CHO-K1) cells (GenScript) with forced expression of human OX2R were seeded onto a 384 well microplate (Corning) at 7500 cells/well and cultured for 24 hours. 20 µL of the loading buffer (25 mM HEPES containing 1.25 mM of Probenecid and 2.5 µg/mL of Fluo 4-AM at final concentration, Hank's balanced salt solution, 0.06% Pluronic F-127, Quenching buffer) in the Calcium Kit II (DOJINDO LABORATORIES) was added, and the microplate was allowed to stand for 30 minutes. A reference compound (Example435 of WO 2019/027058, N-[(2S,3S)-2-[[3-(3,5-difluorophenyl)-2-fluoro-phenyl]methyl]-1-(2-hydroxy-2-methylpropanoyl)pyrrolidin-3-yl]ethanesulfonamide) or the test compound was added in 10 µL, and changes in intracellular calcium ion concentration were measured using FDSS7000EX (Hamamatsu Photonics K.K.) as a fluorescence intensity ratio obtained upon dual wavelength excitation at 480 nm and 540 nm. Note that the reference compound or test compound was dissolved in DMSO (final concentration of DMSO was 0.5%) and diluted with an assay buffer (20 mM HEPES, Hank's balanced salt solution, 0.1% BSA). The difference between the maximum and minimum fluorescence values between 5 and 7 seconds after the addition of the test compound or reference compound was used as the indicator. The value of wells to which the assay buffer containing no test compound was added was defined as 0%, and the value of wells to which 5 µM of the reference compound was added was defined as 100%. The 50% effective concentration (EC50 value) was determined from the values obtained when various concentrations of the test compound were added. […]

Compared with `CCS(=O)(=O)NC1C2CC(C2)N(C(=O)C23CC(C2)C3)C1Cc1cccc(-c2cc(F)cc(F)c2)c1F` (single isomer, unassigned) [Example 5, N-{2-(Bicyclo[1.1.1]pentan-1-ylcarbonyl)-3-[(2,3',5'-trifluoro[biphenyl]-3-yl)methyl]-2-azabicyclo[3.1.1]heptan-4-yl}ethanesulfonamide], `CCS(=O)(=O)N[C@H]1C2CC(C2)N(C(=O)C(C)(C)O)[C@H]1Cc1cccc(-c2cc(F)cc(F)c2)c1F` (single isomer, unassigned) [Example 3] is 2.6-fold lower in EC50: 239 nM for the first, 92 nM for the second.

Compared with `C[C@@H](O)C(=O)N1C2CC(C2)[C@H](NS(C)(=O)=O)[C@@H]1Cc1cccc(-c2cccc(OC(F)(F)F)c2)c1F` [Example 42, N-{(3S,4S)-3-{[2-Fluoro-3'-(trifluoromethoxy)[biphenyl]-3-yl]methyl}-2-[(2R)-2-hydroxypropanoyl]-2-azabicyclo[3.1.1]heptan-4-yl}methanesulfonamide], `C[C@@H](O)C(=O)N1C2CC(C2)[C@H](NS(C)(=O)=O)[C@@H]1Cc1cccc(-c2cccc(C(F)F)n2)c1F` [Example 47, N-{(3S,4S)-3-{3-[6-(Difluoromethyl)pyridin-2-yl]-2-fluorobenzyl}-2-[(2R)-2-hydroxypropanoyl]-2-azabicyclo[3.1.1]heptan-4-yl}methanesulfonamide] is 4.2-fold higher in EC50: 28 nM for the first, 117 nM for the second. The first is the more potent here.

`CCS(=O)(=O)N[C@H]1C2CC(C2)N(C(=O)[C@@H](C)O)[C@H]1Cc1cccc(-c2ccccc2)c1F` (single isomer, unassigned) [Example 80] and `C[C@@H](O)C(=O)N1C2CC(C2)[C@H](NS(=O)(=O)C2CC2)[C@@H]1Cc1cccc(-c2ccccc2)c1F` [Example 44, N-{(3S,4S)-3-[(2-Fluoro[biphenyl]-3-yl)methyl]-2-[(2R)-2-hydroxypropanoyl]-2-azabicyclo[3.1.1]heptan-4-yl}cyclopropanesulfonamide] are within 1.5-fold of each other in EC50: 16 nM for the first, 22 nM for the second.

Going from `CC(C)(O)C(=O)N1C2CC(F)(C2)C(NS(C)(=O)=O)C1Cc1cccc(-c2cc(F)cc(F)c2)c1F` (single isomer, unassigned) [Example 12, N-{5-Fluoro-2-(2-hydroxy-2-methylpropanoyl)-3-[(2,3',5'-trifluoro[biphenyl]-3-yl)methyl]-2-azabicyclo[3.1.1]heptan-4-yl}methanesulfonamide] to `CC(C)(O)C(=O)N1C2CC(C2)[C@H](NS(C)(=O)=O)[C@@H]1Cc1cccc(-c2cc(F)cc(F)c2)c1F` (single isomer, unassigned) [Example 1], the EC50 rises from 27 nM to 67 nM (2.5-fold).

First: CS(=O)(=O)N[C@H]1C2CC(C2)N(C(=O)[C@H]2C[C@@H]2F)[C@H]1Cc1cccc(-c2cc(F)cc(F)c2)c1F [Example 29, N-{(3S,4S)-2-{[(1R,2S)-2-Fluorocyclopropyl]carbonyl}-3-[(2,3',5'-trifluoro[biphenyl]-3-yl)methyl]-2-azabicyclo[3.1.1]heptan-4-yl}methanesulfonamide]
Second: CS(=O)(=O)N[C@H]1C2CC(C2)N(C(=O)C2(F)CC2)[C@H]1Cc1cccc(-c2cc(F)cc(F)c2)c1F [Example 19, N-{(3S,4S)-2-[(1-Fluorocyclopropyl)carbonyl]-3-[(2,3',5'-trifluoro[biphenyl]-3-yl)methyl]-2-azabicyclo[3.1.1]heptan-4-yl}methanesulfonamide]
The EC50 of the first is 1.5-fold lower: 253 nM for the first, 380 nM for the second.

First: Cc1cccc(-c2cccc(C[C@H]3[C@@H](NS(C)(=O)=O)C4CC(C4)N3C(=O)C(C)(C)O)c2F)c1 [Example 11, N-[(3S,4S)-3-[(2-Fluoro-3'-methyl[biphenyl]-3-yl)methyl]-2-(2-hydroxy-2-methylpropanoyl)-2-azabicyclo[3.1.1]heptan-4-yl]methanesulfonamide]
Second: CC(C)(O)C(=O)N1C2CC(C2)[C@H](NS(C)(=O)=O)[C@@H]1Cc1cccc(-c2cc(F)cc(Cl)c2)c1F [Example 52, N-[(3S,4S)-3-[(3'-Chloro-2,5'-difluoro[biphenyl]-3-yl)methyl]-2-(2-hydroxy-2-methylpropanoyl)-2-azabicyclo[3.1.1]heptan-4-yl]methanesulfonamide]
The EC50 of the first is 1.8-fold higher: 60 nM for the first, 34 nM for the second. The second is the more potent here.

Compared with `CCNC(=O)N1C2CC(C2)[C@H](NS(C)(=O)=O)[C@@H]1Cc1cccc(-c2ccccc2)c1F` [Example 37, (3S,4S)-N-Ethyl-3-[(2-fluoro[biphenyl]-3-yl)methyl]-4-[(methylsulfonyl)amino]-2-azabicyclo[3.1.1]heptane-2-carboxamide], `CCC(=O)N1C2CC(C2)[C@H](NS(C)(=O)=O)[C@@H]1Cc1cccc(-c2ccccc2)c1F` [Example 56, N-{(3S,4S)-3-[(2-Fluoro[biphenyl]-3-yl)methyl]-2-propanoyl-2-azabicyclo[3.1.1]heptan-4-yl}methanesulfonamide] is 14-fold higher in EC50: 18 nM for the first, 244 nM for the second. The first is the more potent here.

Going from `CC(C)(O)C(=O)N1C2CC(C2)C(NS(C)(=O)=O)C1Cc1cccc(-c2cc(F)cc(F)c2)c1` (single isomer, unassigned) [Example 13, N-{3-[(3',5'-Difluoro[biphenyl]-3-yl)methyl]-2-(2-hydroxy-2-methylpropanoyl)-2-azabicyclo[3.1.1]heptan-4-yl}methanesulfonamide] to `CS(=O)(=O)N[C@H]1C2CC(C2)N(C(=O)NCC2CC2)[C@H]1Cc1cccc(-c2cc(F)cc(F)c2)c1F` [Example 39, (3S,4S)-N-(Cyclopropylmethyl)-4-[(methylsulfonyl)amino]-3-[(2,3',5'-trifluoro[biphenyl]-3-yl)methyl]-2-azabicyclo[3.1.1]heptane-2-carboxamide], the EC50 falls from 1140 nM to 94 nM (12-fold).

`CS(=O)(=O)N[C@@H]1[C@H](Cc2cccc(-c3ccccc3)c2F)N(C(=O)[C@@H]2CC2(F)F)C2CC1(F)C2` [Example 78, N-{(3S,4R)-2-{[(1S)-2,2-Difluorocyclopropyl]carbonyl}-5-fluoro-3-[(2-fluoro[biphenyl]-3-yl)methyl]-2-azabicyclo[3.1.1]heptan-4-yl}methanesulfonamide] and `CS(=O)(=O)N[C@@H]1[C@H](Cc2cccc(-c3ccccc3)c2F)N(C(=O)[C@@H]2C[C@@H]2F)C2CC1(F)C2` [Example 66, N-[(3S,4R)-5-Fluoro-3-[(2-fluoro[biphenyl]-3-yl)methyl]-2-{[(1S,2S)-2-fluorocyclopropyl]carbonyl}-2-azabicyclo[3.1.1]heptan-4-yl]methanesulfonamide] are within 1.5-fold of each other in EC50: 69 nM for the first, 57 nM for the second.

`CC(C)(O)C(=O)N1C2CC(F)(C2)[C@H](NS(C)(=O)=O)[C@@H]1Cc1cccc(-c2ccccc2)c1F` [Example 50, N-[(3S,4R)-5-Fluoro-3-[(2-fluoro[biphenyl]-3-yl)methyl]-2-(2-hydroxy-2-methylpropanoyl)-2-azabicyclo[3.1.1]heptan-4-yl]methanesulfonamide] and `CS(=O)(=O)N[C@@H]1[C@H](Cc2cccc(-c3ccccc3)c2F)N(C(=O)[C@H](O)C(F)(F)F)C2CC1(F)C2` [Example 69, N-{(3S,4R)-5-Fluoro-3-[(2-fluoro[biphenyl]-3-yl)methyl]-2-[(2S)-3,3,3-trifluoro-2-hydroxypropanoyl]-2-azabicyclo[3.1.1]heptan-4-yl}methanesulfonamide] are within 1.5-fold of each other in EC50: 41 nM for the first, 35 nM for the second.

Going from `CCOC(=O)N1C2CC(C2)[C@H](NS(C)(=O)=O)[C@@H]1Cc1cccc(-c2ccccc2)c1F` [Example 65, Ethyl (3S,4S)-3-[(2-fluoro[biphenyl]-3-yl)methyl]-4-[(methylsulfonyl)amino]-2-azabicyclo[3.1.1]heptane-2-carboxylate] to `CS(=O)(=O)N[C@H]1C2CC(C2)N(C(=O)[C@H](O)C2CC2)[C@H]1Cc1cccc(-c2ccccc2)c1F` [Example 64, N-{(3S,4S)-2-[(2R)-2-Cyclopropyl-2-hydroxyacetyl]-3-[(2-fluoro[biphenyl]-3-yl)methyl]-2-azabicyclo[3.1.1]heptan-4-yl}methanesulfonamide], the EC50 falls from 393 nM to 41 nM (9.6-fold). The second is the more potent here.

Going from `C[C@@H](O)C(=O)N1C2CC(C2)[C@H](NS(C)(=O)=O)[C@@H]1Cc1cccc(-c2cc(F)cc(C#N)c2)c1F` [Example 31, N-{(3S,4S)-3-[(3'-Cyano-2,5'-difluoro[biphenyl]-3-yl)methyl]-2-[(2R)-2-hydroxypropanoyl]-2-azabicyclo[3.1.1]heptan-4-yl}methanesulfonamide] to `C=CS(=O)(=O)NC1C(Cc2cc(F)cc(-c3ccccc3)c2F)N(C(=O)[C@@H](C)O)C2CC1(F)C2` (single isomer, unassigned) [Example 96], the EC50 falls from 189 nM to 9.9 nM (19-fold).
